Read-outs that look alike come from different tables or passages of the source.
Key:
[1] = biological target: hERG potassium channel current (IKr) (Homo sapiens, UniProt Q12809); assay: cell-based
From the text: This assay is employed as a screen to assess potential risks for QT interval prolongation.

[2] = Toxicokinetics, 14-day intranasal study in rats (Study 700041); type: in vivo; details: Sprague Dawley, rat, plasma, inhaled or intranasal; for AUC(0-t): read-out: AUC0-Tlast [SE]; for AUC(0-inf): read-out: AUCINF_obs
Protocol: The animals were monitored for mortality, clinical signs, respiratory measurements, body weights, food consumption, and body temperature. Ophthalmoscopic examinations and respiratory function tests were performed on all animals at scheduled timepoints. Clinical pathology assessments (hematology, coagulation, clinical chemistry, and urinalysis) were evaluated at termination. […] Following dosing, the Main animals were euthanized and subjected to a complete necropsy examination on Day 15. […] TK animals were euthanized after the last blood collection and discarded without further examination. At terminal euthanasia, selected tissues/organs were weighed, and microscopic evaluations of a standard set of tissues including the nasal turbinates (4 sections) and brain (7 sections) were performed for all Main and Recovery study animals.
Following dosing, animals in the Main group were euthanized and subjected to a necropsy examination on Day 15.

[3] = female, 5 mg/kg/day, Day 1, Female
[4] = female, 5 mg/kg/day, Day 14, Female
[5] = female, 20 mg/kg/day, Day 1, Female
[6] = female, 75 mg/kg/day, Day 1, Female
[7] = female, 75 mg/kg/day, Day 14, Female
[8] = male, 5 mg/kg/day, Day 14, Male
[9] = male, 20 mg/kg/day, Day 1, Male
[10] = male, 20 mg/kg/day, Day 14, Male
[11] = male, 75 mg/kg/day, Day 1, Male
[12] = male, 75 mg/kg/day, Day 14, Male

hERG potassium channel current (IKr), sequence (Q12809 whole entry): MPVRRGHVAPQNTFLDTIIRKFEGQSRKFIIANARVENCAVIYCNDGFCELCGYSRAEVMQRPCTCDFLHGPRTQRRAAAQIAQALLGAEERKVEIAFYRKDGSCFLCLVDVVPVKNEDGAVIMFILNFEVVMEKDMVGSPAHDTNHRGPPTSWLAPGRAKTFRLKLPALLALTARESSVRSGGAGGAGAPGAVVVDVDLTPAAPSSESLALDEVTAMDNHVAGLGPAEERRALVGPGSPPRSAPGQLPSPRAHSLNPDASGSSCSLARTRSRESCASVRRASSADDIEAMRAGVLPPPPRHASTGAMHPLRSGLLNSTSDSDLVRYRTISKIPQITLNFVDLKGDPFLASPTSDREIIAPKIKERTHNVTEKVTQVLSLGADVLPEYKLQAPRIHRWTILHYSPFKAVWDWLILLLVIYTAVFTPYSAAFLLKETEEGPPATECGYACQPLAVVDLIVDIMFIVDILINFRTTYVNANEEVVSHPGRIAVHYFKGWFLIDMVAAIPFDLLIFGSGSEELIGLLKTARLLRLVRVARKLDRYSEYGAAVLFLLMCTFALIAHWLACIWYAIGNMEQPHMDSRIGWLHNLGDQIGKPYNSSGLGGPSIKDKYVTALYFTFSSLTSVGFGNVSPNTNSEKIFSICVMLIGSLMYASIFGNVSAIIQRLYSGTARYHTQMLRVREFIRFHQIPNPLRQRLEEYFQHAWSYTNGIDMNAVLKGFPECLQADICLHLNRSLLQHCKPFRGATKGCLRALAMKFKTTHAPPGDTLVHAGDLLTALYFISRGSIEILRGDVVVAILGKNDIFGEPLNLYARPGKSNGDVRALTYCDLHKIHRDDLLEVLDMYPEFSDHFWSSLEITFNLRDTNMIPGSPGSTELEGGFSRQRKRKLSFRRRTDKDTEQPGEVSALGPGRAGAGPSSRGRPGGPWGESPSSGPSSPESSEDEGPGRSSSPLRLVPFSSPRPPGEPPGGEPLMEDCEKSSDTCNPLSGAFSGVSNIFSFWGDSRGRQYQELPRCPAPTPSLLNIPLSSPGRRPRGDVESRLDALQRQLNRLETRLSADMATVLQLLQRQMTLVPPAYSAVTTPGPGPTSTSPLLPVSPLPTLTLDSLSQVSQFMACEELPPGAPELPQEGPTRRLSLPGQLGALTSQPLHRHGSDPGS

`COc1ccc2[nH]cc(CCN(C)C)c2c1` [5MeODMT, 5-methoxy-N,N-dimethyltryptamine] showed an IC50 [1] of 8.69 µM, an inhibition at 1 µM ([1]; human) of 5.03 ± 1.95% and an inhibition at 3 µM ([1]; human) of 23.8 ± 6.1%. For the same molecule, the inhibition at 10 µM ([1]; human) was 52.7 ± 2.61%, the inhibition at 35 µM ([1]; human) was 82.2 ± 1.91% and the Tmax ([2]; both sexes, 75 mg/kg, rats, 14-day intranasal study, 5, 20, 75 mg/kg) was 2 to 5 min. For the same molecule, the half-life ([2]; both sexes, 75 mg/kg, rats, 14-day intranasal study, 5, 20, 75 mg/kg, read-out: apparent t1/2) was 6.8 to 9.4 min, the Cmax [2, 3] was 186 ng/mL and the Tmax [2, 3] was 9.96 min. For the same molecule, the AUC(0-t) [2, 3] was 53.2 ng·h/mL, the AUC(0-inf) [2, 3] was 53.7 ng·h/mL and the Cmax [2, 4] was 645 ng/mL. The AUC(0-t) [2, 4] was 63.8 ng·h/mL, the AUC(0-inf) [2, 4] was 64 ng·h/mL and the half-life ([2]; female, 5 mg/kg/day, Day 14, Female, read-out: t1/2 (converted)) was 6.78 min. The Cmax [2, 5] was 679 ng/mL, the AUC(0-t) [2, 5] was 198 ng·h/mL and the AUC(0-inf) [2, 5] was 198 ng·h/mL. It also gave a Cmax ([2]; female, 20 mg/kg/day, Day 14, Female) of 795 ng/mL, a Cmax [2, 6] of 1310 ng/mL and an AUC(0-t) [2, 6] of 228 ng·h/mL. The AUC(0-inf) [2, 6] was 228 ng·h/mL, the half-life ([2]; female, 75 mg/kg/day, Day 1, Female, read-out: t1/2 (converted)) was 9.36 min and the Cmax [2, 7] was 870 ng/mL. The AUC(0-t) [2, 7] was 155 ng·h/mL, the half-life ([2]; female, 75 mg/kg/day, Day 14, Female, read-out: t1/2 (converted)) was 7.8 min and the Cmax ([2]; male, 5 mg/kg/day, Day 1, Male) was 191 ng/mL. For the same molecule, the AUC(0-t) ([2]; male, 5 mg/kg/day, Day 1, Male) was 39.9 ng·h/mL, the AUC(0-inf) ([2]; male, 5 mg/kg/day, Day 1, Male) was 40.1 ng·h/mL and the Cmax [2, 8] was 627 ng/mL. It also gave an AUC(0-t) [2, 8] of 114 ng·h/mL, an AUC(0-inf) [2, 8] of 115 ng·h/mL and a Cmax [2, 9] of 4190 ng/mL. For the same molecule, the AUC(0-t) [2, 9] was 420 ng·h/mL, the AUC(0-inf) [2, 9] was 421 ng·h/mL and the half-life ([2]; male, 20 mg/kg/day, Day 1, Male, read-out: t1/2 (converted)) was 7.5 min. The Cmax [2, 10] was 1200 ng/mL, the AUC(0-t) [2, 10] was 133 ng·h/mL and the AUC(0-inf) [2, 10] was 133 ng·h/mL. The half-life ([2]; male, 20 mg/kg/day, Day 14, Male, read-out: t1/2 (converted)) was 8.58 min, the Cmax [2, 11] was 7010 ng/mL and the AUC(0-t) [2, 11] was 1030 ng·h/mL. It also gave an AUC(0-inf) [2, 11] of 1040 ng·h/mL, a Cmax [2, 12] of 3290 ng/mL and an AUC(0-t) [2, 12] of 391 ng·h/mL. For the same molecule, the AUC(0-inf) [2, 12] was 392 ng·h/mL and the half-life ([2]; male, 75 mg/kg/day, Day 14, Male, read-out: t1/2 (converted)) was 6.96 min.

— patent US11518742B2 (priority 2020, dated 2022)
